How the values were obtained:
P-gp (MDR1) [1] = target: T1, P-gp (MDR1) (Homo sapiens, UniProt P08183); test: Bi-directional transport across MDCKII-MDR1 cell monolayers; format: in vitro ADME
P-gp (MDR1) [2] = target: T1, P-gp (MDR1); test: Cellular accumulation of vandetanib in MDCKII-MDR1 vs parent WT cells; details: 100nM vandetanib, 60 min accumulation
[3] = Brain accumulation and plasma pharmacokinetics of vandetanib in FVB mice; format: in vivo, male FVB wild type mice
Bcrp1 [4] = target: T2, Bcrp1 (Mus musculus, UniProt Q7TMS5); test: Bi-directional transport across MDCKII-Bcrp1 cell monolayers; format: in vitro ADME, murine
T2 sequence (Q7TMS5 1-657): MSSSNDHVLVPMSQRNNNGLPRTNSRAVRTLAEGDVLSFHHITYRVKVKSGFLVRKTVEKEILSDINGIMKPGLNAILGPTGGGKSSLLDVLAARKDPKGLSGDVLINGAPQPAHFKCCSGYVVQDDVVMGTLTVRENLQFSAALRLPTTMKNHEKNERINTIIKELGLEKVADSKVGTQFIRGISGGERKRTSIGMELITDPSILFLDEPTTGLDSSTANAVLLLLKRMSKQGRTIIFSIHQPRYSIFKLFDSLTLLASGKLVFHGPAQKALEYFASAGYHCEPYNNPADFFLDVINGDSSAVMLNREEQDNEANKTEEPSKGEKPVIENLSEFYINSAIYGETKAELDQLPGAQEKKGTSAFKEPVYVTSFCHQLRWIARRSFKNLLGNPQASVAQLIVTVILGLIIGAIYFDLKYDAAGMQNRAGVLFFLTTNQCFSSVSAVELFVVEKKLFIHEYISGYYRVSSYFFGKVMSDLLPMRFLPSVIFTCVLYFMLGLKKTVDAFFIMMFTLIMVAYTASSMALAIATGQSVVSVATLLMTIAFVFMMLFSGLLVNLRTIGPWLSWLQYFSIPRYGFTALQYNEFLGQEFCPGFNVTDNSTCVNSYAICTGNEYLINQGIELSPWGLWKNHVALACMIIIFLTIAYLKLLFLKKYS

[5] = Bi-directional transport across MDCKII-WT cell monolayers; format: in vitro ADME, canine; details: dog, MDCK
MDCK-WT cell monolayers = test: as above; format: in vitro ADME, canine; details: 5μM vandetanib
P-gp = P-gp (Homo sapiens, UniProt P08183); test: P-gp inhibition: [3H]digoxin accumulation in MDCK-MDR1 cells; format: cell-based
Bcrp1 [6] = target: T2, Bcrp1; test: Bcrp1 inhibition: [3H]abacavir accumulation in MDCK-Bcrp1 cells; format: cell-based, murine; details: 10, 25 and 50μM inhibitor
[7] = male, FVB, mouse, plasma, iv, 5 mg/kg

T1 sequence (P08183 whole entry): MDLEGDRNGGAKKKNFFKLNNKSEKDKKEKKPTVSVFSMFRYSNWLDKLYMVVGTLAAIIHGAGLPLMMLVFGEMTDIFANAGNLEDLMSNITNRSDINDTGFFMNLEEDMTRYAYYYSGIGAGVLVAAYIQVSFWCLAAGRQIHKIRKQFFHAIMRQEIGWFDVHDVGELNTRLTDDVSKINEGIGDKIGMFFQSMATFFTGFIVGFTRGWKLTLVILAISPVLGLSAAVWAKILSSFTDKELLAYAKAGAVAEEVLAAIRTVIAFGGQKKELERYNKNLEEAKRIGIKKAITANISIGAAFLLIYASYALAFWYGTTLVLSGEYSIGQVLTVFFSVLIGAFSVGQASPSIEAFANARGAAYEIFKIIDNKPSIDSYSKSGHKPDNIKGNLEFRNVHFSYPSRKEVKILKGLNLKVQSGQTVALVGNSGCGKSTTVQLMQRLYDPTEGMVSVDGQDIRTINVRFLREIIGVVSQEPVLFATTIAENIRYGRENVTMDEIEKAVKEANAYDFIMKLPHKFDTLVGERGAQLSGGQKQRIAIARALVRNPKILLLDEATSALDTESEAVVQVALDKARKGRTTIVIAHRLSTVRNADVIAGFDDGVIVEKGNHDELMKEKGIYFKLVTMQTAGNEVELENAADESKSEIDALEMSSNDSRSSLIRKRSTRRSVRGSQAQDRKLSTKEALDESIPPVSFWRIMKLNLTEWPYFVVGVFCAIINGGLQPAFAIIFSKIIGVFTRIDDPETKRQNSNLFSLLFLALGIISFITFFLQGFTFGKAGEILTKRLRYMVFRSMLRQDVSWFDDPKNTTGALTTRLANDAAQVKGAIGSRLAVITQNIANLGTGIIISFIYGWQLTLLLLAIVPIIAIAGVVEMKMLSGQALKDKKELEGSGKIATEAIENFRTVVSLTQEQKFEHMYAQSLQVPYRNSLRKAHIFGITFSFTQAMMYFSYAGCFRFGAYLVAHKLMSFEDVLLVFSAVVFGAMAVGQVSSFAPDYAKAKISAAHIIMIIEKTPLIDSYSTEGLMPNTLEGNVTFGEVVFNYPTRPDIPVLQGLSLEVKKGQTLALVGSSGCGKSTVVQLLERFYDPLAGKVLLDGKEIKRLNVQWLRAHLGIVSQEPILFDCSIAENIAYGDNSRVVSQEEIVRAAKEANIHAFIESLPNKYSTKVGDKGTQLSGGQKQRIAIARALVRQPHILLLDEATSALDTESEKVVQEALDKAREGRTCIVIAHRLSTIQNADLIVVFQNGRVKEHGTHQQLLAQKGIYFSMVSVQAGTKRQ
Chain of P-gp (P08183 whole entry): as above

Papp A→B at 240 min, 5 μM (P-gp (MDR1) [1]; dog, MDCK-MDR1) [nm/s]	Papp B→A at 240 min, 5 μM (P-gp (MDR1) [1]; dog, MDCK-MDR1) [nm/s]	efflux ratio at 240 min, 5 μM (P-gp (MDR1) [1]; dog, MDCK-MDR1)	AUC(0-t) ([3]; male, FVB, mouse, brain, iv, 5 mg/kg) [µg·h/mL]	AUC(0-t) [3, 7] [µg·h/mL]	Vd [3, 7] [L/kg]	clearance [3, 7] [L/h/kg]	Papp A→B at 240 min, 5 μM (Bcrp1 [4]) [nm/s]	Papp B→A at 240 min, 5 μM (Bcrp1 [4]) [nm/s]	efflux ratio at 240 min, 5 μM (Bcrp1 [4])	Papp A→B at 240 min, 5 μM [5] [nm/s]	Papp B→A at 240 min, 5 μM [5] [nm/s]	efflux ratio at 240 min, 5 μM [5]	Directionality of vandetanib transport across WT cells (MDCK-WT cell monolayers)	IC50 (P-gp) [µM]	Intracellular accumulation of [3H]abacavir in MDCK-Bcrp1 cells in the presence of inhibitor (Bcrp1 [6])	Compound	Directional flux of vandetanib across MDR1 transfected cells (P-gp (MDR1) [1]; 5μM vandetanib)	Vandetanib accumulation in MDR1 overexpressing cells versus WT cells (P-gp (MDR1) [2])	Brain concentrations compared with plasma concentrations ([3]; vandetanib 5mg/kg i.v. alone, 15, 30, 60 and 120min)
57.3 ± 2.9	46.6 ± 2.6	0.81	1.05	5.09	1.3	0.562	56.6 ± 12.6	423 ± 26.4	7.5	75.7 ± 5.2	80.8 ± 1.7	1.06	no directionality in transport			COc1cc2c(Nc3ccc(Br)cc3F)ncnc2cc1OCC1CCN(C)CC1 [Vandetanib]	No significant difference was observed in the directional flux	not statistically different from WT cells	Brain concentrations were significantly lower than the plasma concentration
														3	increased significantly	CO[C@H]1C[C@@H]2CC[C@@H](C)[C@@](O)(O2)C(=O)C(=O)N2CCCC[C@H]2C(=O)O[C@H]([C@H](C)C[C@@H]2CC[C@@H](OCCO)[C@H](OC)C2)CC(=O)[C@H](C)/C=C(\C)[C@@H](O)[C@@H](OC)C(=O)[C@H](C)C[C@H](C)/C=C/C=C/C=C/1C [everolimus]			
														3.5	increased significantly	CO[C@H]1C[C@@H]2CC[C@@H](C)[C@@](O)(O2)C(=O)C(=O)N2CCCC[C@H]2C(=O)O[C@H]([C@H](C)C[C@@H]2CC[C@@H](OC(=O)C(C)(CO)CO)[C@H](OC)C2)CC(=O)[C@H](C)/C=C(\C)[C@@H](O)[C@@H](OC)C(=O)[C@H](C)C[C@H](C)/C=C/C=C/C=C/1C [temsirolimus]			

— article PMC3402233 (International Journal of Pharmaceutics, 2012)
